The test system of this test is 885512-296-R-J2-PDC complex spheroid viability. Briefly: Anticancer human tumor 885512-296-R-J2-PDC patient-derived breast carcinoma cell line growth inhibition. Conditions: for viability, T/C: stronger effect = lower value; for IC50: curve of compound. An excerpt:
Multicellular complex tumor spheroid response to LSD1 Inhibitor Iadademstat in combination with a variety of drugs and investigational agents in selected tumor cell lines
The current study was undertaken to assess response to LSD1 inhibitors in combination with standard-of-care drugs and investigational agents in solid tumor complex spheroid models as well as in the K-562 leukemia. Complex spheroids include a stromal component modeled by human endothelial cells (HUVEC) and fibroblasts modeled by human mesenchymal stem cells (MSCs). The concentration ranges selected for each drug and investigational agent were based upon clinically achievable concentrations if the clinical Cmax of the agent was known.
Compounds. The drugs and investigational agents used in this study are listed on Table 1. All of the agents used, including staurosporine (NSC755774) and gemcitabine (NSC613327), were obtained from the Developmental Therapeutics Program, NCI. FDA-approved anticancer drugs are available from the NCI at http://dtp.nci.nih.gov/branches/dscb/oncology_drugset_explanation.html. Drugs and investigational agents were >95% pure by proton nuclear magnetic resonance (NMR) and liquid chromatography/mass spectrometry (LC/MS). Stock solutions were prepared at 400x in DMSO, stored at -70 degrees C, and diluted in fresh medium prior to their use. The final concentration of DMSO in cell culture wells never exceeded 0.25% (v/v). The FDA-approved anticancer drug set is available from the Developmental Therapeutics Program at https://dtp.cancer.gov/organization/dscb/obtaining/available_plates.htm. All drugs and investigational agents were tested over a range starting from a high concentration at or near the clinical Cmax and decreasing in half-log increments. If the clinical Cmax for an agent had not been determined, the highest concentration tested was 10 microM.
Cell Lines. The patient-derived cancer cell (PDC) lines: 292921-168-R-J2-PDC, K24384-001-R-PDC, and 521955-158-R2-J5-PDC pancreatic carcinomas, 556581-035-R-J1 ovarian carcinoma, 324938-238-R-J1-PDC, 855422-203-R-J1-PDC and 883617-216-R-J1-PDC urothelial bladder carcinomas, 743489-274-T-PDC renal cell carcinoma, 138582-R-J1 Merkel cell tumor, K60290-347-R-J1 and K57222-313-R-J1-PDC glioblastomas, 653999-131-R-J2-PDC, LG0703-F948-PDC, and 349418-098-R-PDC non-small cell lung carcinomas, 885512-296-R-J2-PDC, 171881-019-R-J1-PDC breast carcinomas and 186277-243-T-J2-PDC and 233499-124-R-J2-PDC colon carcinomas were obtained from the NCI Patient-Derived Models Repository (PDMR, https://pdmr.cancer.gov). The established cell lines NCI/ADR-RES (RRID:CVCL_14520 and OVCAR-5 (RRID:CVCL_1628) ovarian carcinomas, 786-O (RRID:CVCL_1051) and A498 (RRID:CVCL_A498) renal cell carcinoma, NCI-H211 (ATCC, cat. CRL-5824; RRID:CVCL_1529), NCI-H196 (ATCC, cat. CRL-5823, RRID:CVCL_1509), SW 1271 (ATCC, cat. CRL-2177, RRID:CVCL_1716) and NCI-H1876 (ATCC, cat. CRL-5902, RRID:CVCL_1503) small cell lung carcinomas, MDA-MB-231 (RRID:CVCL_0062) and MDA-MB-468 (RRID:CVCL_0419)breast carcinomas (10-12). Pooled donor human umbilical vein endothelial cells (HUVEC, Lonza, cat. CC-2519) and human mesenchymal stem cells (hMSC, Lonza, cat. PT-2501) were purchased from Lonza (Walkersville, MD).
Cell Culture. All cells were maintained in an incubator at 37 degrees C and 5% CO2 with 95% humidity. The PDC lines were cultured according to standard operating procedures established by the NCI PDMR (https://pdmr.cancer.gov). Briefly all PDCs were thawed and cultured in Matrigel-coated flasks prepared with a working solution of 1X Ham's F-12 nutrient mix, without supplementation (Invitrogen, Waltham, MA, cat. 11765054), 100 U/mL penicillin-streptomycin (Invitrogen, cat. 15140122), and 2.5% Matrigel (Corning Inc., Corning, NY, cat. 354248) for the first three passages. […]

“And” between values parts separate entries of the source, which are not always exact repeats. Identical values can stand only once.

Usually viability, T/C stands for the ratio of treated to control. Broadly, the IC50 is the concentration that inhibits the measured activity by half.
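Also: spheroids exposed to agents for 7 days before viability read.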

`CC(C)CC(NC(=O)C(Cc1ccccc1)NC(=O)c1cnccn1)B(O)O` (stereo unspecified): the IC50 was 0.879 nM and < 0.316 nM. Also, the viability, T/C (compound 0.000316 µM) was 99.8% and 17.9%. In addition, the viability, T/C (compound 0.00316 µM) is 2.61% and 0.22%. Moreover, under “compound 0.01 µM”, the viability, T/C was 4.07% and 0.18%. For the same compound, the viability, T/C (compound 0.0316 µM) is 0.12% and 0.1%. Also, the viability, T/C (compound 0.1 µM) is 3.52% and 0.14%.
For `CC(C)CC(NC(=O)CNC(=O)c1cc(Cl)ccc1Cl)B1OC(=O)CC(CC(=O)O)(C(=O)O)O1` (stereo unspecified), the half-inhibitory concentration (IC50) is 6.45 nM and 4.56 nM. Also, the viability, T/C (compound 0.000316 µM) is 102% and 89.6%. Also, the viability, T/C (compound 0.001 µM) was 84.1% and 89.2%. Further, where the note is “compound 0.00316 µM”, the viability, T/C was 96.3% and 68.9%. Further, the viability, T/C (compound 0.01 µM) is 22.7% and 9.34%. Besides, the viability, T/C (compound 0.0316 µM) is 8.52% and 2.1%. For the same compound, the viability, T/C (compound 0.1 µM) was 4.36% and 0.41%.
In the case of `CC1(C)CCC(CN2CCN(c3ccc(C(=O)NS(=O)(=O)c4ccc(NCC5CCOCC5)c([N+](=O)[O-])c4)c(Oc4cnc5[nH]ccc5c4)c3)CC2)=C(c2ccc(Cl)cc2)C1`, the IC50 is 3310 nM and 1320 nM. The viability, T/C (compound 0.0316 µM) is 121% and 95.1%. The viability, T/C (compound 0.1 µM) was 109% and 91%. The viability, T/C (compound 0.316 µM) is 89.3% and 82%. The viability, T/C (compound 1 µM) is 72.6% and 61.4%. The viability, T/C (compound 3.16 µM) is 63.1% and 19.3%. Moreover, the viability, T/C (compound 10 µM) was 10.2% and 0.17%.
Turning to `CC1COCCN1c1cc(-c2ccnn2C)c2ccnc(-c3ccn[nH]3)c2n1` (stereo unspecified), the IC50 was below 3.16 nM. Besides, the viability, T/C (compound 0.01 µM) was 6.26% and 3.04%. Also, where the note is “compound 0.0316 µM”, the viability, T/C is 2.66% and 1.79%. Further, the viability, T/C (compound 0.1 µM) is 2.1% and 2.15%. Besides, where the note is “compound 0.316 µM”, the viability, T/C is 4.57% and 2.49%. Also, the viability, T/C (compound 1 µM) is 11.1% and 3.37%.
For the compound `CCN(c1cc(-c2ccc(CN3CCOCC3)cc2)cc(C(=O)NCc2c(C)cc(C)[nH]c2=O)c1C)C1CCOCC1`, the IC50 is 1700 nM and 188 nM. For the same compound, the viability, T/C (compound 0.00949 µM) was 92.3% and 81.8%. Also, under “compound 0.03 µM”, the viability, T/C is 80.2% and 89.8%. Further, the viability, T/C (compound 0.0949 µM) was 74.8% and 68%. For the same compound, the viability, T/C (compound 0.3 µM) was 60.2% and 35.7%. The viability, T/C (compound 0.949 µM) was 76.2% and 18.2%. In addition, the viability, T/C (compound 3 µM) was 25.1% and 7.11%.
Regarding `CC[C@@]1(O)C(=O)OCc2c1cc1n(c2=O)Cc2cc3c(CN(C)C)c(O)ccc3nc2-1`, the concentration for half-maximal inhibition (IC50) is 0.41 nM and 0.678 nM. Further, the viability, T/C (compound 0.000316 µM) was 59.8% and 76.7%. The viability, T/C (compound 0.001 µM) is 16.6% and 36.4%. For the same compound, the viability, T/C (compound 0.00316 µM) was 8.16% and 3.47%. For the same compound, where the note is “compound 0.01 µM”, the viability, T/C is 7.89% and 3.58%. Besides, the viability, T/C (compound 0.0316 µM) was 9.39% and 2.75%. Moreover, where the note is “compound 0.1 µM”, the viability, T/C is 9.51% and 1.92%.
For the compound `CCc1c2c(nc3ccc(O)cc13)-c1cc3c(c(=O)n1C2)COC(=O)[C@]3(O)CC`, the IC50 was below 0.949 nM. In addition, the viability, T/C (compound 0.000949 µM) was 7.33% and 2.09%. For the same compound, the viability, T/C (compound 0.003 µM) was 4.69% and 2%. The viability, T/C (compound 0.00949 µM) is 4.28% and 1.07%. Further, where the note is “compound 0.03 µM”, the viability, T/C was 6.78% and 1.14%. Under “compound 0.0949 µM”, the viability, T/C was 12.3% and 1.2%. For the same compound, the viability, T/C (compound 0.3 µM) was 3.96% and 1.27%.
For `COc1cc(C2c3cc4c(cc3C(OC3OC5COC(C)OC5C(O)C3O)C3COC(=O)C23)OCO4)cc(OC)c1O` (stereo unspecified), the IC50 is 50.5 nM and 47 nM. Further, where the note is “compound 0.00949 µM”, the viability, T/C was 86.4% and 69.3%. The viability, T/C (compound 0.03 µM) is 64.5% and 70.5%. For the same compound, the viability, T/C (compound 0.0949 µM) was 32.7% and 18.8%. Moreover, the viability, T/C (compound 0.3 µM) was 10.8% and 4.99%. Besides, the viability, T/C (compound 0.949 µM) was 6.14% and 3.49%. The viability, T/C (compound 3 µM) was 7.43% and 2.68%.
Take `COc1cc(Nc2ncc3c(n2)-c2ccc(Cl)cc2C(c2c(F)cccc2OC)=NC3)ccc1C(=O)O`: the IC50 was 5.39 nM and < 3.16 nM. The viability, T/C (compound 0.00316 µM) is 63.8% and 24.6%. For the same compound, the viability, T/C (compound 0.01 µM) is 32.3% and 28.3%. For the same compound, for the setting “compound 0.0316 µM”, the viability, T/C is 23% and 22.3%. The viability, T/C (compound 0.1 µM) was 31.3% and 21%. The viability, T/C (compound 0.316 µM) was 14.5% and 18.3%. The viability, T/C (compound 1 µM) was 12% and 14.3%.

(Values after PubChem BioAssay AID1918946 (Molecular Pharmacology Branch, DTP, NCI, 2023).)
